One data set deals with HIV-1 RT (Human immunodeficiency virus type 1 group M subtype B, UniProt P04585). The settings on record: cited from earlier work.
For data set [1], the system named is HepG2 (Hepatocarcinoma). The settings on record: for Selectivity index SI = IC50(normal cell)/IC50(cancer cell line): MRC-5 vs HepG2.
The test system of data set [2] is MOLT-3 (Acute lymphoblastic leukemia). The following applies: for Selectivity index SI = IC50(normal cell)/IC50(cancer cell line): MRC-5 vs MOLT-3.
Data set [3] has as its system HuCCA-1 (Cholangiocarcinoma). The settings on record: for Selectivity index SI = IC50(normal cell)/IC50(cancer cell line): MRC-5 vs HuCCA-1.
Data set [4] has as its system A549 (Lung carcinoma). The settings on record: for Selectivity index SI = IC50(normal cell)/IC50(cancer cell line): MRC-5 vs A549.
The subject of data set [5] is MDA-MB-231 (Hormone-independent breast cancer). The following applies: for Selectivity index SI = IC50(normal cell)/IC50(cancer cell line): MRC-5 vs MDA-MB-231.
Data set [6] has as its system S102 (Thai liver cancer). The following applies: for Selectivity index SI = IC50(normal cell)/IC50(cancer cell line): MRC-5 vs S102.
Data set [7] relates to HeLa (Cervical carcinoma). The following applies: for Selectivity index SI = IC50(normal cell)/IC50(cancer cell line): MRC-5 vs HeLa.
Data set [8] deals with T47-D (Hormone-dependent breast cancer). The settings on record: for Selectivity index SI = IC50(normal cell)/IC50(cancer cell line): MRC-5 vs T47-D.
Data set [9] has as its system H69AR (Lung cancer, multidrug resistance). The following applies: for Selectivity index SI = IC50(normal cell)/IC50(cancer cell line): MRC-5 vs H69AR.
Data set [10] concerns HL-60 (promyeloblast). The following applies: for Selectivity index SI = IC50(normal cell)/IC50(cancer cell line): MRC-5 vs HL-60.
Data set [11] deals with HepG2 (Hepatocarcinoma). The data set is described as follows: cells. The following applies: Homo sapiens, HepG2, 48 h, read-out: IC50 cytotoxic activity.
Data set [12] concerns MOLT-3 (Acute lymphoblastic leukemia). Nature of the data set: cells. The settings on record: Homo sapiens, MOLT-3, 48 h, read-out: IC50 cytotoxic activity.
In data set [13] the test system is HuCCA-1 (Cholangiocarcinoma). The data set is described as follows: cells. The settings on record: Homo sapiens, HuCC-A1, 48 h, read-out: IC50 cytotoxic activity.
In data set [14] the test system is A549 (Lung carcinoma). Nature of the data set: cells. The settings on record: Homo sapiens, A549, 48 h, read-out: IC50 cytotoxic activity.
For data set [15], the system named is MDA-MB-231 (Hormone-independent breast cancer). Nature of the data set: cells. The settings on record: Homo sapiens, MDA-MB-231, 48 h, read-out: IC50 cytotoxic activity.
Data set [16] concerns S102 (Thai liver cancer). The data set is described as follows: cells. The settings on record: Homo sapiens, 48 h, read-out: IC50 cytotoxic activity.
The subject of data set [17] is HeLa (Cervical carcinoma). The data set is described as follows: cells. The following applies: Homo sapiens, 48 h, read-out: IC50 cytotoxic activity.
For data set [18], the system named is T47-D (Hormone-dependent breast cancer). The data set is described as follows: cells. The following applies: Homo sapiens, T47D, 48 h, read-out: IC50 cytotoxic activity.
The test system of data set [19] is H69AR (Lung cancer, multidrug resistance). Nature of the data set: cells. The settings on record: Homo sapiens, 48 h, read-out: IC50 cytotoxic activity.
The subject of data set [20] is HL-60 (promyeloblast). The data set is described as follows: cells. The following applies: Homo sapiens, HL-60, 48 h, read-out: IC50 cytotoxic activity.
Another data set in a line: in vitro. The settings on record: human, MRC-5 cells (normal embryonic lung cells).
The subject of data set [21] is MRC-5 (normal embryonic lung cell). The settings on record: for Percentage cytotoxicity: MRC-5, at maximum tested concentration of 50 µg/mL; for toxicity toward normal embryonic lung cells (MRC-5), in words: MRC-5, up to 50 µg/mL.

Where “and” joins values, the source holds several entries; their conditions need not be identical. Equal entries are not always repeated. Where two headings read alike, the source gives them in different places. Where only a bound is given, the exact number is not on record here.

On to `Cc1cc(C#N)cc(C)c1Oc1cc(Nc2ccc(C#N)cn2)nc2ccccc12` [4-(2’,6’-dimethyl-4’-cyanophenoxy)−2-(5’’-cyanopyridin-2’’ylamino)quinoline], for which the “percentage inhibition against HIV-1 RT” value on HIV-1 RT (quinolines of the previous publication) is 45% and 45.1%. Also, on HIV-1 RT (read-out: IC50 against HIV-1 RT, quinolines of the previous publication), the IC50 was 1.22 µM.

In the case of `N#Cc1ccc(Nc2cc(Oc3ccc(C#N)cc3)c3ccccc3n2)cc1` [4-(4’-cyanophenoxy)−2-(4’’-cyanophenyl)-aminoquinoline], the “percentage inhibition against HIV-1 RT” value on HIV-1 RT (previous study) is 39.71%.

For the molecule `Cc1cc(C=O)cc(C)c1Oc1cc(Oc2c(C)cc(C=O)cc2C)c2cnccc2n1` [Compound 13a, 2,4-di-(2ˊ,6ˊ-dimethyl-4ˊ-formylphenoxy)−1,6-naphthyridine], the “Selectivity index SI = IC50(normal cell)/IC50(cancer cell line)” value in the data set with HepG2 (Hepatocarcinoma) [1] is on record as 1.12; in [2] it was 6.03; in [3], 1.61; in the data set with A549 (Lung carcinoma) [4], 0.64; in data set [5], 1.21; in the data set with S102 (Thai liver cancer) [6], 0.98. Besides, the “Selectivity index SI = IC50(normal cell)/IC50(cancer cell line)” value in [7] is given as 2.83; in data set [8], 1.90; in data set [9], 0.74; in the data set on HL-60 (promyeloblast) [10], 3.98. Besides, the IC50 in the data set on HepG2 (Hepatocarcinoma) [11] stood at 60.7 ± 1 µM; in [12], 11.3 ± 2.7 µM; in data set [13] it was 42.2 ± 2.6 µM; in the data set on A549 (Lung carcinoma) [14], 107 ± 2.6 µM; in data set [15] it was 56.3 ± 3.7 µM; with S102 (Thai liver cancer) [16], 69.8 ± 2.8 µM. Moreover, the IC50 stood at 24.1 ± 0.4 µM in data set [17], 35.9 ± 2.1 µM in data set [18], 91.8 ± 2.9 µM in [19] and 17.1 ± 2.4 µM in the data set with HL-60 (promyeloblast) [20]. The IC50 at 48 h in “in vitro” came to 68.1 ± 1.1 µM.

With `Cc1cc(C#N)cc(C)c1Oc1cc(Oc2c(C)cc(C#N)cc2C)c2cnccc2n1` [Compound 13b, 2,4-di-(2ˊ,6ˊ-dimethyl-4ˊ-cyanophenoxy)−1,6-naphthyridine], the “Selectivity index SI = IC50(normal cell)/IC50(cancer cell line)” value in the data set on HepG2 (Hepatocarcinoma) [1] is recorded as over 1.59; in data set [2], over 10.52; in [3] it was over 3.67; with A549 (Lung carcinoma) [4], over 3.29; in data set [5], over 1.62; in the data set on S102 (Thai liver cancer) [6], over 1.15. Besides, the “Selectivity index SI = IC50(normal cell)/IC50(cancer cell line)” value was over 4.87 in data set [7], over 3.49 in data set [8], over 1.56 in data set [9] and over 1.46 in the data set with HL-60 (promyeloblast) [10]. Besides, in [21], the Percentage cytotoxicity is given as 43%. In addition, in data set [21], the “toxicity toward normal embryonic lung cells (MRC-5), in words” value is listed as “non-toxic”. Moreover, the IC50 in the data set with HepG2 (Hepatocarcinoma) [11] was 74.7 ± 13.3 µM; in [12], 11.3 ± 2.2 µM; in data set [13], 32.4 ± 2.7 µM; in the data set with A549 (Lung carcinoma) [14], 36.1 ± 0.6 µM; in data set [15], 73.2 ± 8.1 µM; in the data set on S102 (Thai liver cancer) [16] it was 103 ± 4.4 µM. The IC50 in data set [17] amounted to 24.4 ± 2.5 µM; in data set [18] it was 34.1 ± 2.2 µM; in data set [19], 76 ± 6.54 µM; with HL-60 (promyeloblast) [20] it was 81.5 ± 19.5 µM. This molecule gave a concentration for half-maximal inhibition (IC50) at 48 h in the data set “in vitro” of over 119 µM.

`Cc1cc(C=O)cc(C)c1Oc1cc(Oc2c(C)cc(C=O)cc2C)c2ccncc2n1` [Compound 14a, 2,4-di-(2ˊ,6ˊ-dimethyl-4ˊ-formylphenoxy)−1,7-naphthyridine]: the “Selectivity index SI = IC50(normal cell)/IC50(cancer cell line)” value amounted to 1.21 in the data set on HepG2 (Hepatocarcinoma) [1]; 6.80 in data set [2]; 3.01 in [3]; 1.07 in the data set with A549 (Lung carcinoma) [4]; 1.32 in [5]; 0.97 in the data set on S102 (Thai liver cancer) [6]. The “Selectivity index SI = IC50(normal cell)/IC50(cancer cell line)” value in data set [7] was 5.35; in [8], 2.50; in [9] it was 1.25; in the data set on HL-60 (promyeloblast) [10], 6.28. The IC50 in the data set with HepG2 (Hepatocarcinoma) [11] worked out at 53.9 ± 3.4 µM; in data set [12], 9.6 ± 1.1 µM; in data set [13] it was 21.7 ± 1.6 µM; with A549 (Lung carcinoma) [14] it was 60.8 ± 1 µM; in data set [15], 49.4 ± 6.7 µM; in the data set with S102 (Thai liver cancer) [16], 67.6 ± 2.2 µM. Besides, the half-maximal inhibitory concentration (IC50) is 12.2 ± 0.7 µM in data set [17], 26.1 ± 5 µM in [18], 52.2 ± 1.6 µM in [19] and 10.4 ± 0.8 µM in the data set with HL-60 (promyeloblast) [20]. In the data set “in vitro”, this molecule yielded an IC50 at 48 h of 65.3 ± 2.1 µM.

As for `Cc1cc(C#N)cc(C)c1Oc1cc(Oc2c(C)cc(C#N)cc2C)c2ccncc2n1` [Compound 14b, 2,4-di-(2ˊ,6ˊ-dimethyl-4ˊ-cyanophenoxy)−1,7-naphthyridine], the Percentage cytotoxicity in the data set with HepG2 (Hepatocarcinoma) [1] (HepG2, at maximum tested concentration of 50 µg/mL) is listed as 34%; in data set [2] (MOLT-3, at maximum tested concentration of 50 µg/mL), 16%; in data set [3] (HuCCA-1, at maximum tested concentration of 50 µg/mL), 0%; with A549 (Lung carcinoma) [4] (A549, at maximum tested concentration of 50 µg/mL) it was 8%; in [21] it was 0%; in data set [5] (MDA-MB-231, at maximum tested concentration of 50 µg/mL) it was 22%. Further, the Percentage cytotoxicity was determined as 6% with S102 (Thai liver cancer) [6] (S102, at maximum tested concentration of 50 µg/mL); 24% in data set [7] (HeLa, at maximum tested concentration of 50 µg/mL); 0% in [8] (T47-D, at maximum tested concentration of 50 µg/mL); 0% in data set [9] (H69AR, at maximum tested concentration of 50 µg/mL); 24% in the data set on HL-60 (promyeloblast) [10] (HL-60, at maximum tested concentration of 50 µg/mL). Also, the “toxicity toward normal embryonic lung cells (MRC-5), in words” value in data set [21] is “non-toxic”. Also, the IC50 (in the data set on HepG2 (Hepatocarcinoma) [11]; in data set [12]; in data set [13]; in the data set on A549 (Lung carcinoma) [14]; in [15]; in the data set on S102 (Thai liver cancer) [16]) was over 119 µM throughout. Also, the IC50 (in [17]; in data set [18]; in data set [19]; with HL-60 (promyeloblast) [20]) was over 119 µM in each case. This molecule had an IC50 at 48 h in “in vitro” of over 119 µM.

`O=C1Nc2ccc(Cl)cc2[C@@](C#CC2CC2)(C(F)(F)F)O1` [EFV, efavirenz, reference compound] came in with an IC50 at 48 h in the data set “in vitro” of 95.6 ± 6 µM.

For the molecule `COc1cccc2c1C(=O)c1c(O)c3c(c(O)c1C2=O)C[C@@](O)(C(=O)CO)C[C@@H]3O[C@H]1C[C@H](N)[C@H](O)[C@H](C)O1` [doxorubicin, reference compound], the “Selectivity index SI = IC50(normal cell)/IC50(cancer cell line)” value in the data set with HepG2 (Hepatocarcinoma) [1] was 5.17; in [2], 155; in data set [3] it was 3.44; in the data set on A549 (Lung carcinoma) [4], 5.17; in data set [5], 1.24; with S102 (Thai liver cancer) [6], 1.41. Also, the “Selectivity index SI = IC50(normal cell)/IC50(cancer cell line)” value was 7.75 in [7], 2.58 in [8], 0.09 in data set [9] and 31 in the data set on HL-60 (promyeloblast) [10]. Further, the IC50 in the data set on HepG2 (Hepatocarcinoma) [11] was determined as 0.6 ± 0.02 µM; in data set [12] it was 0.02 µM; in [13] it was 0.9 ± 0.1 µM; with A549 (Lung carcinoma) [14], 0.6 ± 0.1 µM; in data set [15], 2.5 ± 0.1 µM; with S102 (Thai liver cancer) [16], 2.2 µM. In addition, the results for the IC50 (in [17]; in [18]; in the data set with HL-60 (promyeloblast) [20]) were 0.4 µM, 1.2 µM and 0.1 µM, respectively. Besides, in the data set “in vitro”, the IC50 at 48 h is 3.1 ± 0.5 µM.

For the molecule `COc1cc([C@@H]2c3cc4c(cc3[C@@H](O[C@@H]3O[C@@H]5CO[C@@H](C)O[C@H]5[C@H](O)[C@H]3O)[C@H]3COC(=O)[C@H]23)OCO4)cc(OC)c1O` [etoposide, reference compound], the values for the IC50 (in data set [12]; in the data set with HL-60 (promyeloblast) [20]) were 0.03 ± 0.02 µM and 0.8 ± 0.1 µM, respectively.

(Values after publication PMC12484987 (Scientific Reports, 2025).)
